In ChEMBL document CHEMBL5678811 (Invest New Drugs, 2014) one finds TGI data, which are given here for one molecule.

Assay [1] has as its system Calu-6. As to the kind of experiment: Antitumor activity against human Calu-6 cells xenografted in CD1 nu/nu mouse assessed as tumor growth inhibition at 60 mg/kg, […] q3d administered via gavage for 7 days measured twice per week during compound dosing. The conditions noted are these: time 7.0 day. Type of assay: functional, organism-based.
The subject of assay [2] is Calu-6. As to the kind of experiment: Antitumor activity against human Calu-6 cells xenografted in CD1 nu/nu mouse assessed as tumor growth inhibition at 150 mg/kg, […] q3d administered via gavage for 4 days measured twice per week during compound dosing. The following applies: time 4.0 day. It counts as functional, organism-based. (In general: A xenograft is tissue or cells of one species grown in another, often human tumour cells in immunodeficient mice.)

SMILES strings stand for the structures. The source made the active and inactive calls. The rule behind the calls is not given here.

For the molecule `Nc1ccn([C@@H]2O[C@H](CO)[C@@H](O)C2(F)F)c(=O)n1`, the TGI result in the assay with Calu-6 [1] and in the assay with Calu-6 [2] was “Active” each time.
